Assay results as given in patent US9006437B2, “Xanthene dyes comprising a sulfonamide group” (Biotium, Inc., priority 2009, dated 2015).

experiment: Absorption/emission maxima of dyes in pH 7.4 PBS; type: physicochemical

SMILES | λabs (nm) (in pH 7.4 PBS) | λem (nm) (in pH 7.4 PBS)
N=c1ccc2c(-c3ccccc3C(=O)O)c3ccc(N)cc3oc-2c1S(=O)(=O)NCCCCCC(=O)ON1C(=O)CCC1=O [Compound No. 9] | 529/ nm | –
N=c1ccc2c(-c3ccccc3C(=O)O)c3ccc(N)c(S(=O)(=O)NCCCCCC(=O)ON4C(=O)CCC4=O)c3oc-2c1 [compound 1] | 488 nm | 516 nm
N=c1ccc2c(-c3ccccc3C(=O)O)c3ccc(N)c(S(=O)(=O)NCCOCCOCCOCCOCCOCCOCCOCCN)c3oc-2c1S(=O)(=O)O [compound 3] | 488 nm | 516 nm
N=c1ccc2c(-c3ccccc3C(=O)O)c3ccc(N)c(S(=O)(=O)NCCOCCOCCOCCOCCOCCOCCOCCOCCC(=O)ON4C(=O)CCC4=O)c3oc-2c1S(=O)(=O)O [compound 4] | 488 nm | 516 nm
COCCOCCNC(=O)c1ccc(-c2c3ccc(=N)c(S(=O)(=O)O)c-3oc3c(S(=O)(=O)NCCOCCOCCOCCOCCC(=O)ON4C(=O)CCC4=O)c(N)ccc23)c(C(=O)O)c1 [compound 5] | 488 nm | 516 nm
